Assay [1] relates to primary colon cancer samples from patients with high M3 receptor expression grown as organoids.
For assay [2] the following is noted: patients with irritable bowel syndrome; cited from earlier work.

The structures appear in SMILES notation.

For `c1ccc(C(O[C@@H]2CCCN(CCc3ccc4c(c3)OCO4)C2)c2ccccc2)cc1` [zamifenacin], the Organoid growth entry in assay [1] is “inhibited”. Moreover, the Colonic motor activity result in assay [2] is recorded as “reduce colonic motor activity”.
